Assay results: patent US20070099828A1, “BIOMARKERS FOR THE EFFICACY OF CALCITONIN AND PARATHYROID HORMONE TREATMENT” (priority 2003, published 2007)
Values joined by “and” are separate entries in the source; they are usually repeats but may differ in a detail not shown here. Equal values may be shown once. Ends that are not written are not given here.

How the values were obtained:
[1] = cynomolgus monkey, in vivo
Source text: Animals. […] Solvent was used as vehicle for the control group.
The animals used in this analysis were cynomolgus monkeys (Macaca fascicularis), supplied by Centre de Recherches Primatologiques, Port Louis, Mauritius. Two animals were used per group and sex. At the beginning of the treatment period, the animals were at least 24 months old, with a body weight of approximately 3 kg. Animals were kept under standard conditions for animal welfare. Animals were examined daily for mortality, food consumption and clinical observations. Body weight was recorded once per week.

[2] = Hormone determinations in serum; type: in vivo, cynomolgus monkeys (Macaca fascicularis); conditions: males
Source text: (§1) Blood sampling. […] Blood samples were taken from a peripheral vein.

Blood pressure = type: in vivo, cynomolgus monkeys (Macaca fascicularis); conditions: for Blood Pressure Difference: Week 2 vs Week-1; for Blood Pressure Week-1: before dosing
Haematology = type: in vivo, cynomolgus monkeys (Macaca fascicularis)
Source text: as §1

[3] = urine, females, day −8 (pre-dose)

Food Consumption Avg., Both animals [1]: 89.6 | ACTH ([2]; day 7): 101 pg/mL and 88 pg/mL | ALDOST ([2]; day 7): 380 pg/mL and 471 pg/mL | C-PEPTI ([2]; day 7): 2.90 ng/mL and 4.40 ng/mL | CORTISOL ([2]; day 7): 1156 nmol/L and 1432 nmol/L | CT ([2]; day 7): 4.0 pg/mL and 7.8 pg/mL | G.H. ([2]; day 7): 15.8 ng/mL and 11.6 ng/mL | GASTRIN ([2]; day 7): 84 pg/mL and 98 pg/mL | GLUCAG ([2]; day 7): 656 pg/mL and 497 pg/mL | INSULIN ([2]; day 7): 22.0 mU/l and 38.0 mU/l | IPH ([2]; day 7): 96 pg/mL and 62 pg/mL | S.MED ([2]; day 7): 749 ng/mL and 828 ng/mL | T3 ([2]; day 7): 3.47 nmol/L and 2.76 nmol/L | T4 ([2]; day 7): 90 nmol/L and 80 nmol/L | VD25-H ([2]; day 7): 62 nmol/L | ACTH ([2]; day 13): 83 pg/mL and 91 pg/mL | ALDOST ([2]; day 13): 592 pg/mL and 651 pg/mL | C-PEPTI ([2]; day 13): 2.10 ng/mL and 2.40 ng/mL | CORTISOL ([2]; day 13): 1299 nmol/L and 1212 nmol/L | CT ([2]; day 13): 4.6 pg/mL and 7.6 pg/mL | G.H. ([2]; day 13): 12.1 ng/mL and 14.0 ng/mL | GASTRIN ([2]; day 13): 78 pg/mL and 94 pg/mL | GLUCAG ([2]; day 13): 786 pg/mL and 739 pg/mL | INSULIN ([2]; day 13): 14.0 mU/l and 10.0 mU/l | IPH ([2]; day 13): 78 pg/mL and 55 pg/mL | S.MED ([2]; day 13): 914 ng/mL and 867 ng/mL | T3 ([2]; day 13): 3.55 nmol/L and 2.43 nmol/L | T4 ([2]; day 13): 68 nmol/L and 56 nmol/L | VD25-H ([2]; day 13): 50 nmol/L | ALDOST ([2]; day −6 (pre-dose)): 265 pg/mL and 141 pg/mL | CORTISOL ([2]; day −6 (pre-dose)): 1662 nmol/L and 1506 nmol/L | CT ([2]; day −6 (pre-dose)): 6.1 pg/mL and 10.4 pg/mL | G.H. ([2]; day −6 (pre-dose)): 13.4 ng/mL and 8.5 ng/mL | GLUCAG ([2]; day −6 (pre-dose)): 858 pg/mL and 694 pg/mL | INSULIN ([2]; day −6 (pre-dose)): 16.0 mU/l and 12.0 mU/l | IPH ([2]; day −6 (pre-dose)): 123 pg/mL and 71 pg/mL | PROLACT ([2]; day −6 (pre-dose)): 7.1 ng/mL and 7.5 ng/mL | T3 ([2]; day −6 (pre-dose)): 2.48 nmol/L and 1.38 nmol/L | T4 ([2]; day −6 (pre-dose)): 84 nmol/L and 59 nmol/L | VD25-H ([2]; day −6 (pre-dose)): 77 nmol/L and 88 nmol/L | ACTH ([2]; day −6 relative to start of dosing (pre-dose)): 96 pg/mL and 115 pg/mL | B (Haematology; females, d 7): 0.06 G/L and 0.04 G/L | L (Haematology; females, d 7): 6.29 G/L and 5.87 G/L | MCH (Haematology; females, d 7): 18.9 pg and 19 pg | MCV (Haematology; females, d 7): 67 fL and 68 fL | PCV (Haematology; females, d 7): 0.41 l/l and 0.43 l/l | PLAT (Haematology; females, d 7): 525 G/L and 382 G/L | RBC (Haematology; females, d 7): 6.2 T/l and 6.4 T/l | WBC (Haematology; females, d 7): 18.4 G/l and 12.3 G/l | B (Haematology; females, d 13): 0.03 G/L and 0.04 G/L | E (Haematology; females, d 13): 0.21 G/L and 0.29 G/L | HB (Haematology; females, d 13): 11.3 g/dL | L (Haematology; females, d 13): 5.81 G/L and 5.21 G/L | MCH (Haematology; females, d 13): 19.3 pg and 19.2 pg | MCV (Haematology; females, d 13): 67 fL and 66 fL | PCV (Haematology; females, d 13): 0.4 l/l and 0.39 l/l | PLAT (Haematology; females, d 13): 496 G/L and 309 G/L | RBC (Haematology; females, d 13): 5.9 T/l | WBC (Haematology; females, d 13): 13.2 G/l and 10.1 G/l | L (Haematology; females, d −8 (before dosing)): 3.92 G/L and 4.4 G/L | MCH (Haematology; females, d −8 (before dosing)): 19.3 pg | MCV (Haematology; females, d −8 (before dosing)): 63 fL and 64 fL | PCV (Haematology; females, d −8 (before dosing)): 0.44 l/l and 0.43 l/l | RBC (Haematology; females, d −8 (before dosing)): 6.9 T/l and 6.7 T/l | WBC (Haematology; females, d −8 (before dosing)): 10.1 G/l and 14.3 G/l | monocyte count (Haematology; females, d −8 (before dosing)): 0.8 G/l and 0.54 G/l | B (Haematology; males, d 7): 0.02 G/l and 0.03 G/l | HB (Haematology; males, d 7): 11.3 g/dL and 11.9 g/dL | L (Haematology; males, d 7): 5.91 G/l and 5.30 G/l | MCH (Haematology; males, d 7): 17.7 pg and 20.2 pg | MCHC (Haematology; males, d 7): 29.3 g/dL and 30.2 g/dL | MCV (Haematology; males, d 7): 60 fL and 67 fL | PCV (Haematology; males, d 7): 0.38 l/l and 0.40 l/l | PLAT (Haematology; males, d 7): 456 G/l and 589 G/l | RBC (Haematology; males, d 7): 6.4 T/l and 5.9 T/l | WBC (Haematology; males, d 7): 8.4 G/l and 15.0 G/l | B (Haematology; males, d 13): 0.04 G/l and 0.03 G/l | HB (Haematology; males, d 13): 11.7 g/dL and 11.8 g/dL | L (Haematology; males, d 13): 5.37 G/l and 4.86 G/l | M (Haematology; males, d 13): 0.27 G/l and 0.46 G/l | MCH (Haematology; males, d 13): 17.3 pg and 20.3 pg | MCHC (Haematology; males, d 13): 27.5 g/dL and 29.2 g/dL | MCV (Haematology; males, d 13): 63 fL and 70 fL | PCV (Haematology; males, d 13): 0.43 l/l and 0.41 l/l | PLAT (Haematology; males, d 13): 330 G/l and 452 G/l | RBC (Haematology; males, d 13): 6.8 T/l and 5.8 T/l | WBC (Haematology; males, d 13): 8.8 G/l and 11.9 G/l | HB (Haematology; males, d −6 (before dosing)): 13.6 g/dL and 13.2 g/dL | L (Haematology; males, d −6 (before dosing)): 5.07 G/l and 3.99 G/l | MCH (Haematology; males, d −6 (before dosing)): 18.0 pg and 20.4 pg | MCHC (Haematology; males, d −6 (before dosing)): 31.5 g/dL and 33.1 g/dL | MCV (Haematology; males, d −6 (before dosing)): 57 fL and 62 fL | PCV (Haematology; males, d −6 (before dosing)): 0.43 l/l and 0.40 l/l | PLAT (Haematology; males, d −6 (before dosing)): 325 G/l and 459 G/l | RBC (Haematology; males, d −6 (before dosing)): 7.6 T/l and 6.5 T/l | WBC (Haematology; males, d −6 (before dosing)): 10.4 G/l and 9.1 G/l | Ca2+ (urine) (Urinary analysis; males, day 13): 7.55 mmol/L and 13.10 mmol/L | I.PHOS (urine) (Urinary analysis; males, day 13): 0.10 mmol/L and 0.17 mmol/L | K+ (urine) (Urinary analysis; males, day 13): 107 mmol/L and 69 mmol/L | LDH (urine) (Urinary analysis; males, day 13): 14.0 IU/L and 19.0 IU/L | Mg2+ (urine) (Urinary analysis; males, day 13): 8.70 mmol/L and 5.25 mmol/L | NAG (urine) (Urinary analysis; males, day 13): 2.9 IU/l and 2.6 IU/l | CREAT (urine) (Urinary analysis; males, day −5 (before dosing)): 16160 µmol/L and 16120 µmol/L | CREAT (urine) (Urinary analysis; males, day −6 (before dosing)): 16160 µmol/L and 9940 µmol/L | Ca2+ (urine) (Urinary analysis; males, day −6 (before dosing)): 5.10 mmol/L and 3.50 mmol/L | K+ (urine) (Urinary analysis; males, day −6 (before dosing)): 86 mmol/L and 125 mmol/L | LDH (urine) (Urinary analysis; males, day −6 (before dosing)): 7.0 IU/L and 9.0 IU/L | CREAT (Urinary analysis; urine, females, day 13): 5620 µmol/L and 8060 µmol/L | Ca2+ (Urinary analysis; urine, females, day 13): 20.05 mmol/L and 12.35 mmol/L | Cl− (Urinary analysis; urine, females, day 13): 101 mmol/L and 133 mmol/L | LDH (Urinary analysis; urine, females, day 13): 10.0 IU/L and 9.0 IU/L | Mg2+ (Urinary analysis; urine, females, day 13): 6.90 mmol/L and 5.90 mmol/L | VOLUME (Urinary analysis; urine, females, day 13 of dosing): 52 mL and 42 mL | CREAT (Urinary analysis; [3]): 19160 µmol/L and 14060 µmol/L | Ca2+ (Urinary analysis; [3]): 11.50 mmol/L and 6.60 mmol/L | K+ (Urinary analysis; [3]): 302 mmol/L and 164 mmol/L | LDH (Urinary analysis; [3]): 11.0 IU/L and 18.0 IU/L | Mg2+ (Urinary analysis; [3]): 7.35 mmol/L and 4.00 mmol/L | Na+ (Urinary analysis; [3]): 145 mmol/L and 118 mmol/L
Sequence: SVSEIQLLHDKGKHLASQERVEWLRKKLQDVHTA [PTS893, Leu8, Asp10, Lys11, Ala16, Gln18, Thr33, Ala34 human PTH 1-34 [hPTH(1-34)]]
Blood Pressure Week 2 (Blood pressure; Female, first line per animal): 70 mmHg and 87 mmHg | Blood Pressure Difference (Blood pressure; Female, first line per animal): −22 mmHg and 9 mmHg | Blood Pressure Week-1 (Blood pressure; Female, first line per animal): 92 mmHg and 78 mmHg | Blood Pressure Week 2 (Blood pressure; Female, second line per animal): 42 mmHg and 28 mmHg | Blood Pressure Difference (Blood pressure; Female, second line per animal): −1 mmHg and 4 mmHg | Blood Pressure Week-1 (Blood pressure; Female, second line per animal): 43 mmHg and 24 mmHg | Blood Pressure Week 2 (Blood pressure; Male, first line per animal): 87 mmHg and 101 mmHg | Blood Pressure Difference (Blood pressure; Male, first line per animal): 11 mmHg and −5 mmHg | Blood Pressure Week-1 (Blood pressure; Male, first line per animal): 76 mmHg and 106 mmHg | Blood Pressure Week 2 (Blood pressure; Male, second line per animal): 22 mmHg and 33 mmHg | Blood Pressure Difference (Blood pressure; Male, second line per animal): 4 mmHg and −20 mmHg | Blood Pressure Week-1 (Blood pressure; Male, second line per animal): 18 mmHg and 53 mmHg
